The source of these data is PubChem BioAssay (NCI).

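Dose response: 5 concentrations. Exposure: 48 h. Format: 96-well plates. Endpoint: linear interpolation; highest concentration if not reached. At the TGI there is no net growth.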

Among the test systems are M14 melanoma; HT29 colon; SNB-75 CNS; MDA-MB-231 breast; MDA-N; T-47D breast; SF-295 CNS; SF-268 CNS; A498 renal; ACHN renal; EKVX NSCLC; BT-549 breast.
Assay in all cases: NCI anticancer screen, dose series, 48 h

Turning to `OCC(S)CS.[Bi]` (stereo not drawn), the TGI with M14 melanoma is 29.5 µM; in the assay on HT29 colon, 46.4 µM; in the assay on SNB-75 CNS, 26.8 µM; in the assay on MDA-MB-231 breast, 43.2 µM; in the assay with MDA-N it was 34.4 µM; in the assay on T-47D breast, 31.5 µM. The TGI with SF-295 CNS is more than 100 µM; in the assay on SF-268 CNS it was 28.4 µM; with A498 renal, 56.3 µM; in the assay on ACHN renal it was 30.6 µM; in the assay on EKVX NSCLC it was 45.4 µM; in the assay on BT-549 breast, 27.8 µM.
Take `O=C1C=CC(=O)c2c(O)c(N(CCCl)CCCl)c(Cl)c(O)c21`: the TGI was 6.06 µM in the assay on M14 melanoma; more than 8.53 µM in the assay on HT29 colon; more than 10 µM in the assay with SNB-75 CNS; 6.75 µM in the assay on MDA-MB-231 breast; 5.79 µM in the assay on MDA-N; 6.57 µM in the assay with T-47D breast. Also, the TGI in the assay on SF-295 CNS was more than 10 µM; in the assay with SF-268 CNS, more than 8.4 µM; in the assay with A498 renal, more than 9.53 µM; with ACHN renal, 5.6 µM; with EKVX NSCLC it was more than 10 µM; in the assay on BT-549 breast, more than 7.26 µM.
On to `COc1ccc(/N=N/C(=NNC(=O)c2ccc(C)cc2)c2ccc(N(C)C)cc2)cc1`, for which the TGI in the assay on M14 melanoma was more than 100 µM; with HT29 colon, more than 89.8 µM; in the assay with SNB-75 CNS, more than 100 µM; in the assay with MDA-MB-231 breast it was more than 100 µM; with MDA-N, more than 73.4 µM; in the assay with T-47D breast, more than 33.8 µM. In addition, the TGI with SF-295 CNS was more than 100 µM; in the assay with SF-268 CNS, more than 100 µM; in the assay with A498 renal, more than 100 µM; in the assay with ACHN renal, more than 89.9 µM; in the assay with EKVX NSCLC, more than 100 µM; with BT-549 breast it was 82.9 µM.
Consider `Fc1ccc2c(c1)nc1n2C(c2c(F)cccc2F)SC1` (stereo not drawn), for which the TGI in the assay with M14 melanoma, in the assay on HT29 colon, with SNB-75 CNS, with MDA-MB-231 breast, with MDA-N and in the assay with T-47D breast was more than 100 µM in each case. For the same compound, the TGI in the assay on SF-295 CNS, in the assay with SF-268 CNS, with A498 renal, in the assay with ACHN renal, with EKVX NSCLC and in the assay with BT-549 breast was more than 100 µM throughout.
On to `CCN(CC)CCNc1ccc([N+](=O)[O-])c2nc3ccc(OC)cc3c(N)c12`, for which the TGI with M14 melanoma is 2.97 µM; in the assay on HT29 colon, 1.42 µM; with SNB-75 CNS it was 3.64 µM; in the assay with MDA-MB-231 breast, 3.25 µM; in the assay with MDA-N it was 3.26 µM; in the assay on T-47D breast it was 3.16 µM. Further, the TGI stood at 2.96 µM with SF-295 CNS; 3.63 µM in the assay with SF-268 CNS; 3.08 µM in the assay with A498 renal; 2.89 µM with ACHN renal; 3.28 µM in the assay with EKVX NSCLC; 2.72 µM in the assay on BT-549 breast.
In the case of `NS(=O)(=O)c1ccc(NCc2nc3ccccc3[nH]2)cc1`, the TGI with M14 melanoma, with HT29 colon, with SNB-75 CNS, in the assay with MDA-MB-231 breast, in the assay on MDA-N and in the assay on T-47D breast was more than 100 µM in each case. For the same compound, the TGI in the assay with SF-295 CNS, with SF-268 CNS, with A498 renal, in the assay on ACHN renal, in the assay on EKVX NSCLC and in the assay with BT-549 breast was more than 100 µM throughout.
For the compound `COc1ccc2c(c1)[nH]c1c3ccc(OC)cc3oc(=O)c21`, the TGI with M14 melanoma, in the assay on HT29 colon, in the assay on SNB-75 CNS, with MDA-MB-231 breast, with MDA-N and with T-47D breast was more than 100 µM throughout. For the same compound, the TGI in the assay with SF-295 CNS, in the assay on SF-268 CNS, with A498 renal, with ACHN renal, in the assay on EKVX NSCLC and in the assay with BT-549 breast was more than 100 µM each time.
On to `O=C1Nc2ccccc2SC1=C(C(=O)c1ccccc1)C(=O)c1ccccc1`, for which the TGI with M14 melanoma is more than 100 µM; in the assay with HT29 colon, more than 100 µM; with SNB-75 CNS it was more than 94.6 µM; in the assay on MDA-MB-231 breast, more than 92.8 µM; in the assay on MDA-N, 48.8 µM; in the assay with T-47D breast, more than 100 µM. In addition, the TGI with SF-295 CNS was 57.5 µM; in the assay with SF-268 CNS it was more than 100 µM; in the assay on A498 renal, more than 80.3 µM; with ACHN renal, more than 100 µM; in the assay on EKVX NSCLC it was more than 100 µM; with BT-549 breast, more than 90.2 µM.
As for `NNS(=O)(=O)c1ccc(/C=C2\NC(=O)NC2=O)cc1`, the TGI in the assay on M14 melanoma, with HT29 colon, in the assay with SNB-75 CNS, with MDA-MB-231 breast, in the assay with MDA-N and in the assay on T-47D breast was more than 100 µM in each case. Moreover, the TGI with SF-295 CNS, in the assay on SF-268 CNS, in the assay on A498 renal, in the assay with ACHN renal, in the assay on EKVX NSCLC and in the assay with BT-549 breast was more than 100 µM each time.
With `Cc1nccn1S(=O)(=O)c1ccc(Cl)cc1`, the TGI in the assay on M14 melanoma is more than 100 µM; with HT29 colon, more than 100 µM; in the assay with SNB-75 CNS, more than 100 µM; in the assay on MDA-MB-231 breast, 78.9 µM; with MDA-N, 51 µM; in the assay on T-47D breast, more than 100 µM. The TGI in the assay with SF-295 CNS, in the assay on SF-268 CNS, with A498 renal, in the assay on ACHN renal, in the assay with EKVX NSCLC and in the assay with BT-549 breast was more than 100 µM each time.
As to `Clc1ncnc2c1nc(C#Cc1ccccc1)n2C1CCCCO1` (stereo not drawn), the TGI in the assay with M14 melanoma amounted to 4.39 µM; in the assay on HT29 colon it was 3.98 µM; in the assay on SNB-75 CNS, 7.78 µM; in the assay on MDA-MB-231 breast, 12.7 µM; with MDA-N, 8.12 µM; in the assay on T-47D breast it was 4.55 µM. Moreover, the TGI came out at 16.5 µM in the assay on SF-295 CNS; 6.22 µM in the assay with SF-268 CNS; 8.84 µM with A498 renal; 3.06 µM in the assay on ACHN renal; 3.67 µM in the assay on EKVX NSCLC; 4.1 µM in the assay on BT-549 breast.
As for `CC(=O)c1c(O)cc(O)c(-c2c(C)cc(O)c3c2C(=O)c2cccc(O)c2C3=O)c1O`, the TGI was 51.4 µM in the assay with M14 melanoma; 31.5 µM in the assay with HT29 colon; 38.1 µM in the assay with SNB-75 CNS; 41.1 µM in the assay on MDA-MB-231 breast; 30.8 µM in the assay on MDA-N; 22.7 µM in the assay with T-47D breast. Further, the TGI in the assay on SF-295 CNS turned out to be 26.9 µM; with SF-268 CNS it was 36.8 µM; with A498 renal, 29.1 µM; in the assay on ACHN renal it was 25.5 µM; with EKVX NSCLC, 31.9 µM; in the assay on BT-549 breast, 35.3 µM.
`O=C(CN1CCN(c2ccccn2)CC1)N1CCCn2c1nc1ccccc1c2=O`: the TGI in the assay on M14 melanoma, in the assay on HT29 colon, with SNB-75 CNS, in the assay with MDA-MB-231 breast, in the assay on MDA-N and in the assay on T-47D breast was more than 100 µM in each case. Also, the TGI in the assay on SF-295 CNS, with SF-268 CNS, with A498 renal, with ACHN renal, in the assay on EKVX NSCLC and in the assay on BT-549 breast was more than 100 µM each time.
For `CCOC(=O)C1CCCN1C(=O)c1ccccc1Cl` (stereo not drawn), the TGI with M14 melanoma, in the assay on HT29 colon, with SNB-75 CNS, in the assay on MDA-MB-231 breast, in the assay on MDA-N and with T-47D breast was more than 100 µM each time. The TGI in the assay with SF-295 CNS, in the assay with SF-268 CNS, in the assay on A498 renal, in the assay on ACHN renal, with EKVX NSCLC and in the assay on BT-549 breast was more than 100 µM in each case.
